From patent US5001158A, “Nitrosoureas compounds preparation thereof and utilization thereof in anticancerous” (Centre National de la Recherche Scientifique, priority 1990, dated 1991)

Assays:
Format in all cases: in vivo, mice (male B6 D2 F1 /OLA)
[1] = 50% lethal dose (LD50 acute) in mice; settings: mouse, in vivo, ip, mortality before the 8th day
Description: (§1) Male B6 D2 F1 /OLA mice are inoculated intraperitoneally with 10^5 cells of the leukemia strain L1210 on day 0 and divided into groups. The first is the control group and the others are treated with the drugs at different concentrations on days 1, 5 and 9. The compounds are injected as a suspension in olive oil. The mortality of the animals is observed and the autopsy indicates whether it is due to leukemia or to the toxic action of the products.
(§2) The 50% lethal dose (LD50 acute) is determined by taking into account the mortality which has occurred before the 8th day among the animals treated on day D:1. The survival median of the treated animals (mT) and the control animals (mC) was established and Wilcoxon's non-parametric statistical test was applied. The results are considered positive if the index I [formula] is greater than 125 and the test Is significant at p≤0.05.

leukemia strain L1210 = experiment: Antitumoral activity on leukemia L1210 i.p. in mice, unoxidized compounds (ICIG); settings: for survival rate after 60 days: at different doses; for I indices (in words): i.p., leukemia L1210
Description: The oncostatic activity of these nitrosated derivatives was determined at the I.C.I.G. in VILLEJUIF (Department of Prof. MATHE) following a described experimental protocol: M. HAYAT et al , Cancer Chemother. Pharmacol., 1979, 3, 217-221; R. MARAL et al., Eur. J. Med. Chem., submitted for publication.
as §1, §2

mice = experiment: 50% lethal dose (LD50 acute) in mice; settings: i.p.
Description: as §1, §2

Structure (SMILES) | LD50 [1] | % of animals surviving to 60 days (leukemia strain L1210; 5 mg/kg i.p., days 1,5,9) | index I (survival median treated vs control) (leukemia strain L1210; 5 mg/kg i.p., days 1,5,9) | % of animals surviving to 60 days (leukemia strain L1210; 10 mg/kg i.p., days 1,5,9) | index I (survival median treated vs control) (leukemia strain L1210; 10 mg/kg i.p., days 1,5,9) | % of animals surviving to 60 days (leukemia strain L1210; 12.5 mg/kg i.p., days 1,5,9) | index I (survival median treated vs control) (leukemia strain L1210; 12.5 mg/kg i.p., days 1,5,9) | % of animals surviving to 60 days (leukemia strain L1210; 15 mg/kg i.p., day +1) | index I (survival median treated vs control) (leukemia strain L1210; 15 mg/kg i.p., day +1) | survival rate after 60 days (leukemia strain L1210) | I indices (in words) (leukemia strain L1210) | % of animals surviving to 60 days (leukemia strain L1210; 15 mg/kg i.p., days 1,5,9) | % of animals surviving to 60 days (leukemia strain L1210; 20 mg/kg i.p., days 1,5,9) | toxicity (in words) (mice)
O=NN(CCCl)C(=O)NCCS [(1), N-[N-(2-Chloroethyl)-N-nitrosocarbamoyl]cysteamine] | 19 to 25 mg/kg | 100% | .infin. (50% or more of the animals survive to day +60) | 100% | .infin. (50% or more of the animals survive to day +60) | 100% | .infin. (50% or more of the animals survive to day +60) | 100% | .infin. (50% or more of the animals survive to day +60) | 100% | at infinity | – | – | –
CSCCNC(=O)N(CCCl)N=O [(3), S-methyl-N-[N-(2-chloroethyl)-N-nitrosocarbamoyl] cysteamine] | 19 to 25 mg/kg | – | .infin. (50% or more of the animals survive to day +60) | – | – | 100% | .infin. (50% or more of the animals survive to day +60) | – | – | 100% | at infinity | 87% | – | –
CC(=O)SCCNC(=O)N(CCCl)N=O [(5), S-acetyl-N-[N-(2-chloroethyl)-N-nitrosocarbamoyl] cysteamine] | 19 to 25 mg/kg | – | – | 14% | .infin. (50% or more of the animals survive to day +60) | 100% | .infin. (50% or more of the animals survive to day +60) | – | – | 100% | at infinity | 80% | 25% | –
O=NN(CCCl)C(=O)NCCSC(c1ccccc1)(c1ccccc1)c1ccccc1 [(9), S-Trityl-N-[N-(2-chloroethyl)-N-nitrosocarbamoyl]cysteamine] | > 625 mg/kg | – | – | – | – | – | – | – | – | – | – | – | – | not toxic
